Laboratory results reported in the NIST ThermoML archive (doi:10.1016/j.jct.2006.05.008).
± gives the expanded uncertainty stated by the source.

Columns and labels:
[1] = Molar enthalpy of transition or fusion; conditions: Adiabatic calorimetry
[2] = Adiabatic calorimetry
[3] = molar heat capacity at saturation pressure; conditions: Glass, Small (less than 1 g) adiabatic calorimetry

CCCCn1cc[n+](C)c1.[Br-] [1-butyl-3-methylimidazolium bromide]
Crystal
Conditions	Molar enthalpy of transition or fusion [kcal/mol]	Triple point temperature [K]
[1]	5.468 ± 0.0239	–
[2]	–	351.35 ± 0.2

CCC[n+]1ccn(C)c1.[Br-] [1-methyl-3-propylimidazolium bromide]
Conditions	Glass transition temperature [°C]	Molar enthalpy of transition or fusion [kcal/mol]	Triple point temperature [K]	molar heat capacity [J/K/mol]
[1], Crystal	–	3.23 ± 0.0478	–	–
[1], Metastable crystal	–	5.11 ± 0.0717	–	–
[2], Crystal	–	–	314.7 ± 0.5	–
[2], Glass	-64 ± 3	–	–	–
[2], Metastable crystal	–	–	310.4 ± 0.5	–
[3], 80.55 K	–	–	–	98.61 ± 0.59
[3], 82.89 K	–	–	–	100.33 ± 0.6
[3], 84.9 K	–	–	–	101.67 ± 0.61
[3], 86.92 K	–	–	–	103.14 ± 0.62
[3], 88.94 K	–	–	–	104.66 ± 0.62
[3], 90.96 K	–	–	–	106.14 ± 0.63
[3], 92.98 K	–	–	–	107.59 ± 0.63
[3], 95 K	–	–	–	109.05 ± 0.64
[3], 97.02 K	–	–	–	110.46 ± 0.64
[3], 99.05 K	–	–	–	111.82 ± 0.65
[3], 101.08 K	–	–	–	113.17 ± 0.65
[3], 103.11 K	–	–	–	114.53 ± 0.66
[3], 105.14 K	–	–	–	115.8 ± 0.66
[3], 107.17 K	–	–	–	117.19 ± 0.67
[3], 109.2 K	–	–	–	118.42 ± 0.67
[3], 111.24 K	–	–	–	119.73 ± 0.68
[3], 113.29 K	–	–	–	120.92 ± 0.68
[3], 115.33 K	–	–	–	122.2 ± 0.69
[3], 117.37 K	–	–	–	123.41 ± 0.69
[3], 119.41 K	–	–	–	124.68 ± 0.7
[3], 121.46 K	–	–	–	125.82 ± 0.7
[3], 123.5 K	–	–	–	127.01 ± 0.71
[3], 125.55 K	–	–	–	128.16 ± 0.71
[3], 127.6 K	–	–	–	129.31 ± 0.72
[3], 129.65 K	–	–	–	130.51 ± 0.72
[3], 131.7 K	–	–	–	131.69 ± 0.73
[3], 133.75 K	–	–	–	132.94 ± 0.73
[3], 135.8 K	–	–	–	134.11 ± 0.74
[3], 137.86 K	–	–	–	135.27 ± 0.74
[3], 139.91 K	–	–	–	136.51 ± 0.75
[3], 141.97 K	–	–	–	137.66 ± 0.75
[3], 144.02 K	–	–	–	138.89 ± 0.75
[3], 146.09 K	–	–	–	140.08 ± 0.76
[3], 148.15 K	–	–	–	141.29 ± 0.77
[3], 150.21 K	–	–	–	142.47 ± 0.77
[3], 152.27 K	–	–	–	143.7 ± 0.78
[3], 154.33 K	–	–	–	144.86 ± 0.78
[3], 156.39 K	–	–	–	146.04 ± 0.78
[3], 158.46 K	–	–	–	147.24 ± 0.79
[3], 160.52 K	–	–	–	148.42 ± 0.79
[3], 162.58 K	–	–	–	149.59 ± 0.8
[3], 164.65 K	–	–	–	150.76 ± 0.8
[3], 166.71 K	–	–	–	151.98 ± 0.81
[3], 168.78 K	–	–	–	153.15 ± 0.81
[3], 170.84 K	–	–	–	154.38 ± 0.82
[3], 172.91 K	–	–	–	155.61 ± 0.82
[3], 174.97 K	–	–	–	156.8 ± 0.83
[3], 177.04 K	–	–	–	158.04 ± 0.83
[3], 179.11 K	–	–	–	159.26 ± 0.84
[3], 181.18 K	–	–	–	160.5 ± 0.84
[3], 183.25 K	–	–	–	161.87 ± 0.85
[3], 185.32 K	–	–	–	163.21 ± 0.85
[3], 187.39 K	–	–	–	164.56 ± 0.86
[3], 189.46 K	–	–	–	165.92 ± 0.86
[3], 191.53 K	–	–	–	167.36 ± 0.87
[3], 193.61 K	–	–	–	168.95 ± 0.88
[3], 195.69 K	–	–	–	170.66 ± 0.88
[3], 197.77 K	–	–	–	172.38 ± 0.89
[3], 199.86 K	–	–	–	174.39 ± 0.9
[3], 201.95 K	–	–	–	176.91 ± 0.91
[3], 202.67 K	–	–	–	177.34 ± 0.91
[3], 204.04 K	–	–	–	179.87 ± 0.92
[3], 205.14 K	–	–	–	181.79 ± 0.93
[3], 206.12 K	–	–	–	184.42 ± 0.94
[3], 207.25 K	–	–	–	188.13 ± 0.96
[3], 208.16 K	–	–	–	192.2 ± 0.98
[3], 209.29 K	–	–	–	200.7 ± 1
[3], 210.11 K	–	–	–	209.2 ± 1.1
[3], 211.19 K	–	–	–	228.95 ± 1.2
[3], 211.92 K	–	–	–	238.53 ± 1.2
[3], 213.01 K	–	–	–	255.28 ± 1.2
[3], 213.79 K	–	–	–	257.19 ± 1.2
[3], 215.01 K	–	–	–	258.34 ± 1.2
[3], 215.82 K	–	–	–	258.85 ± 1.2

CCn1cc[n+](C)c1.[Br-] [1-ethyl-3-methylimidazolium bromide]
Crystal
Conditions	Molar enthalpy of transition or fusion [kcal/mol]	Triple point temperature [K]
[1]	4.36 ± 0.0574	–
[2]	–	349.91 ± 0.2
